In patent US20250281480A1, “PHARMACEUTICAL DRY POWDER INHALATION FORMULATION” (Bayer Aktiengesellschaft, priority 2021, published 2025):

Legend:
[1] = Storage stability of pseudopolymorphic forms (XRPD); format: physicochemical; details: same storage conditions as table 15
[2] = system: patients with PAH or CTEPH; experiment: Phase 1b, inhaled single doses in patients with PAH or CTEPH: pulmonary vascular resistance (PVR), mPAP by right heart catheterization; format: in vivo, human
Description: Patients with PAH or CTEPH were treated in a clinical phase 1b study with escalating orally inhaled single doses* of 240 μg (2 capsules of 120 μg), 480 μg, 1000 μg, 2000 (2 capsules of 1000 μg) or […] (4 capsules of 1000 μg) of a dry powder of example 4 (see under C-1, e.g. tables 17 and 20), inserted into a handheld inhalation device, inhaled by deep inhalative breath into the deep parts of the lung. (*single dose means the administration of one dosage form/capsule as well as administration of two or more dosage forms/capsules simultaneously or consecutively within a short time period). The included patients had no background treatment with standard of care (SoC) medication for PAH or CTEPH (such as endothelin antagonists, prostanoids, phosphodiesterase type 5 inhibitor or soluble guanylate cyclase stimulators). Patients in this study underwent invasive right heart catheterization as medically indicated routine diagnostic. Primary objective of the study was to investigate the peak percent reduction from baseline in PVR. Patients had to have a baseline pulmonary artery pressure (mPAP) of ≥25 mmHg and a PVR of ≥400 dyn·sec·cm^−5 (5 Wood Units) and were not to show vaso-responsiveness to initial iNO inhalation testing to be included in the per protocol analysis. Plasma concentrations (pharmacokinetics) of the administered drug at several time points after administration were measured and safety and tolerability was assessed.
The study is divided into two parts, Part A and Part B. In Part A escalating aforementioned single doses were administered to patients without background treatment with standard of care (SoC) medication for PAH or CTEPH (such as endothelin antagonists, prostanoids, phosphodiesterase type 5 inhibitor or soluble guanylate cyclase stimulators). In Part B, after finalization of Part A, a selected dose from Part A will be tested in further patients without background SoC treatment (group 1) and additionally in patients on monotherapy with SoC (group 2) and on dual combination therapy with SoC (group 3).
The PVR is a derived parameter from parameters directly measured during the right heart catheterization procedure. The direct parameters included in the calculation are: mean pulmonary arterial pressure [mmHg](mPAP), pulmonary capillary wedge pressure [mmHg](PCWP), and cardiac output [1/min](CO). The PVR is calculated according to the formula: PVR [dyn*sec*cm^−5]=80*(mPAP−PCWP)/CO.

[3] = Deposited lung dose with absorbing filters and prediction of human dose (PAH minipig model); format: in vivo
Description: The anesthetized thromboxane A2 challenged PAH-minipig model (see experimental part E-1) is considered to be the most relevant and sensitive model for the prediction of the human minimal effective and effective doses (MED, ED). To determine effective LDs, experiments were repeated with the difference that absorbing filters were attached at the end of the tubes to determine the deposited lung dose. […] Assuming a minimal effective ND of 3 μg/kg (5% reduction in PAP) the minimal effective deposited LD is considered as 0.15 μg/kg (see FIG. 1).
The nominal doses of 3, 10, 30 and 100 μg/kg of the minipig model were multiplied by the filter deposition factor of 5% resulting in 0.15, 0.5, 1.5 and 5 μg/kg lung deposited doses in the minipig. These values were multiplied by 60 kg to achieve the lung dose in humans. Thus, the FPD reflecting the PAP reduction for a 60 kg human are calculated to be 9, 30, 90 and 300 μg.
Thus, via a direct up-scaling from minipig, the predictive MED (5% PAP reduction) for a human based on a 60 kg body weight is calculated to be 9 μg LDD, not considering protein binding within the respiratory tract. As a surrogate for unbound concentrations, which are the likely active concentrations in the lung, we considered respective differences in fractions unbound in plasma of minipig and human. This consideration results in a minimum effective lung dose (LD) for a 60 kg participant of 41 μg LDD for the assumed 5% reduction on PAP. Consequently, the predictive minimal human effective dose is in the range from 9 μg LDD to 41 μg LDD based on a 60 kg body weight (see FIG. 2).
In order to generate a human dose estimate, experiments in the PAH minipig model for comparative example 11 were repeated with the difference that absorbing filters were attached at the end of the tubes to […] determine the deposited lung dose. […] The arithmetic mean of the aerosol fraction deposited on the filters is 5% based on all results of the filter experiments, resulting in relative lung deposited doses of about 0.15 μg/kg (3 μg/kg nominal dose), 0.5 μg/kg (10 μg/kg nominal dose), 1.5 μg/kg (30 μg/kg nominal dose) and 5 μg/kg (100 μg/kg nominal dose). Assuming a minimal effective nominal dose of 3 μg/kg for a 5% reduction in PAP and a mean nebulization efficiency of 5%, the minimal effective deposited lung dose is considered as 0.15 μg/kg based on the PAH minipig model. Therefore, for a human patient of 60 kg body weight a minimal effective lung deposited dose of 9-41 μg, depending on whether or not an effect of different protein binding (see table 37) is postulated. Considering 100 μg/kg as effective dose in the minipig model, 300-1370 μg lung deposited dose is postulated as effective dose, again depending on the consideration of different interspecies protein binding.

[4] = system: unilateral ventilated minipig; experiment: Unilateral ventilated minipig model as a proxy of VQ-mismatch; format: in vivo; details: inhaled application
[5] = system: conscious hypoxia challenged dog; experiment: Conscious hypoxia challenged dog model, duration of action (PAP reduction); format: in vivo
[6] = system: plasma proteins; experiment: Protein binding via Transil assay, dog plasma; format: in vitro ADME
Description: The distribution of a test substance between Transil® (phosphatidylcholine lipid bilayers immobilized on silica beads) and plasma is a characteristic feature of any pharmaceutical compound and is dependent on its extent of binding to plasma proteins. By comparing the distribution between Transil® and buffer with the distribution between Transil® and plasma of any species of interest, the unbound fraction in the plasma of the respective animal species can be calculated in vitro. The respective plasma and buffer concentrations were determined via a radioactivity analysis. A detailed description of the method and its validation was published by Schuhmacher et al. (2).

[7] = system: chronic ovalbumin asthma mice model; experiment: Chronic ovalbumin asthma mice model; details: mouse, in vivo

Structure (SMILES)	storage stability [1]	mean pulmonary arterial pressure (mPAP), mean ± SD ([2]; 1000 μg inhaled single dose, N = 4, 0 D 03 H 00 M) [mmHg]	enduring mean change of PVR from baseline ([2]; 2000 μg group)	enduring mean change of PVR from baseline ([2]; 4000 μg group)	effect sustained with no decrease in response until end of measurement period ([2]; PVR after single inhaled dose) [h]	tolerability ([2]; including the highest dose of 4000 μg)	Relative lung deposited dose in minipig ([3]; 3 μg/kg nominal dose) [µg/kg]	Relative lung deposited dose in minipig ([3]; 10 μg/kg nominal dose) [µg/kg]	Relative lung deposited dose in minipig ([3]; 30 μg/kg nominal dose) [µg/kg]	Relative lung deposited dose in minipig ([3]; 100 μg/kg nominal dose) [µg/kg]	effect on PAP and oxygenation [4]	duration of effect (PAP reduction) [5]	fraction unbound, lower than comparative example 1 [6] [times lower]	effect on airway hyper-responsiveness and inflammation [7]
O=C(O)c1ccc(CCN(CCc2ccccc2OCc2ccc(-c3ccc(C(F)(F)F)cc3)cc2Cl)[C@H]2CCCc3nc(C(=O)O)ccc32)cc1 [Example 4, (5S)—{[2-(4-Carboxyphenyl)ethyl][2-(2-{[3-chloro-4′-(trifluoromethyl)biphenyl-4-yl]methoxy}phenyl)-ethyl]amino}-5,6,7,8-tetrahydroquinoline-2-carboxylic Acid as Monohydrate I]	stable	34.0 ± 11.6	approximately −30%	approximately −30%	≥ 3	good tolerability	–	–	–	–	–	–	–	–
O=C(O)c1ccc(CCN(CCc2ccccc2OCc2ccc(-c3ccc(C(F)(F)F)cc3)cc2Cl)[C@H]2CCCc3nc(C(=O)O)ccc32)cc1 [Comparative example 11, (5S)-5-{[2-(4-carboxyphenyl)ethyl][2-(2-{[3-chloro-4′-(trifluoromethyl)[biphenyl]-4-yl]methoxy}phenyl)ethyl]amino}-5,6,7,8-tetrahydroquinoline-2-carboxylic Acid]	–	–	–	–	–	–	0.15	0.50	1.5	5.0	lowered PAP without negative effects on oxygenation	up to 17 hrs	10	inhibitory effect on airway hyper-responsiveness and inflammation
